Data taken from ChEMBL document CHEMBL1201862, “PubChem BioAssay data set” (2004).
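Values below derive from 48-hour exposures of cells grown in 96-well plates, with endpoints linearly interpolated between the two concentrations bracketing the appropriate inhibition level. GI50: concentration for 50% inhibition of growth.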 Activity calls are given as the source filed them. Rule as the data show it: active = GI50 up to about 1.1 µM and inactive = higher.

Legend:
Experiment in all cases: growth of human tumour cells (NCI), 48 h
[1] = tested on: 786-0
[2] = tested on: A498
[3] = tested on: A549
[4] = tested on: CAKI-1
[5] = tested on: CCRF-CEM
[6] = tested on: COLO 205
[7] = tested on: DMS-114
[8] = tested on: DMS-273
[9] = tested on: EKVX
[10] = tested on: HCT-116
[11] = tested on: HCT-15
[12] = tested on: HL-60
[13] = tested on: HOP-18
[14] = tested on: HOP-92
[15] = tested on: HT-29
[16] = tested on: IGROV-1
[17] = tested on: K562
[18] = tested on: KM-20L2
[19] = tested on: KM12
[20] = tested on: LOX IMVI
[21] = tested on: LXFL 529
[22] = tested on: M14
[23] = tested on: M19-MEL
[24] = tested on: MOLT-4
[25] = tested on: Malme-3M
[26] = tested on: NCI-H226
[27] = tested on: NCI-H23
[28] = tested on: NCI-H460
[29] = tested on: NCI-H522
[30] = tested on: OVCAR-3
[31] = tested on: OVCAR-4
[32] = tested on: OVCAR-5
[33] = tested on: OVCAR-8
[34] = tested on: RPMI-8226
[35] = tested on: RXF 393
[36] = tested on: RXF 631
[37] = tested on: SF-268
[38] = tested on: SF-295
[39] = tested on: SF-539
[40] = tested on: SK-MEL-28
[41] = tested on: SK-MEL-2
[42] = tested on: SK-MEL-5
[43] = tested on: SK-OV-3
[44] = tested on: SN12C
[45] = tested on: SNB-19
[46] = tested on: SNB-75
[47] = tested on: SNB-78
[48] = tested on: SW-620
[49] = tested on: TK-10
[50] = tested on: U-251
[51] = tested on: UACC-257
[52] = tested on: UACC-62
[53] = tested on: UO-31
[54] = tested on: XF498
[55] = tested on: ACHN
[56] = tested on: DLD-1
[57] = tested on: HCC 2998
[58] = tested on: HOP-62
[59] = tested on: SR

**Q.** For `O=P(c1ccccc1)(c1ccccc1)C1CC=C2CCCCCC2C1` (centres undefined), which GI50 [1] is on record?
**A.** 22.6 µM (inactive)

**Q.** And the GI50 [2]?
**A.** 35.9 µM (inactive)

**Q.** And the GI50 [3]?
**A.** > 10 µM (inactive)

**Q.** What about the GI50 [4] of the same compound?
**A.** 23.7 µM (inactive)

**Q.** And the GI50 [5]?
**A.** 23.6 µM (inactive)

**Q.** What about the GI50 [6] of the same compound?
**A.** 24.1 µM (inactive)

**Q.** And the GI50 [7]?
**A.** 24.5 µM (inactive)

**Q.** And the GI50 [8]?
**A.** 27.4 µM (inactive)

**Q.** And the GI50 [9]?
**A.** 37.9 µM (inactive)

**Q.** What about the GI50 [10] of the same compound?
**A.** 19.6 µM (inactive)

**Q.** And the GI50 [11]?
**A.** 37.2 µM

**Q.** What about the GI50 [12] of the same compound?
**A.** 27.2 µM (inactive)

**Q.** What about the GI50 [13] of the same compound?
**A.** 19.2 µM (inactive)

**Q.** And the GI50 [14]?
**A.** 11 µM (inactive)

**Q.** What about the GI50 [15] of the same compound?
**A.** 37.2 µM (inactive)

**Q.** What about the GI50 [16] of the same compound?
**A.** 37.6 µM (inactive)

**Q.** What about the GI50 [17] of the same compound?
**A.** 28.3 µM (inactive)

**Q.** What about the GI50 [18] of the same compound?
**A.** > 10 µM (inactive)

**Q.** And the GI50 [19]?
**A.** 38.5 µM (inactive)

**Q.** And the GI50 [20]?
**A.** 26.1 µM (inactive)

**Q.** What about the GI50 [21] of the same compound?
**A.** 21.4 µM (inactive)

**Q.** And the GI50 [22]?
**A.** 21.8 µM (inactive)

**Q.** What about the GI50 [23] of the same compound?
**A.** 36 µM (inactive)

**Q.** What about the GI50 [24] of the same compound?
**A.** 18.8 µM (inactive)

**Q.** What about the GI50 [25] of the same compound?
**A.** 38.9 µM (inactive)

**Q.** What about the GI50 [26] of the same compound?
**A.** 26.3 µM (inactive)

**Q.** And the GI50 [27]?
**A.** 30.2 µM (inactive)

**Q.** What about the GI50 [28] of the same compound?
**A.** 32.7 µM (inactive)

**Q.** And the GI50 [29]?
**A.** 17.2 µM (inactive)

**Q.** And the GI50 [30]?
**A.** 23.8 µM (inactive)

**Q.** And the GI50 [31]?
**A.** 26.2 µM (inactive)

**Q.** And the GI50 [32]?
**A.** 23.2 µM (inactive)

**Q.** And the GI50 [33]?
**A.** 31 µM (inactive)

**Q.** What about the GI50 [34] of the same compound?
**A.** 16.1 µM (inactive)

**Q.** And the GI50 [35]?
**A.** 28.8 µM (inactive)

**Q.** What about the GI50 [36] of the same compound?
**A.** 27.2 µM (inactive)

**Q.** What about the GI50 [37] of the same compound?
**A.** 23.3 µM (inactive)

**Q.** And the GI50 [38]?
**A.** 41.3 µM (inactive)

**Q.** What about the GI50 [39] of the same compound?
**A.** > 10 µM (inactive)

**Q.** What about the GI50 [40] of the same compound?
**A.** > 10 µM (inactive)

**Q.** And the GI50 [41]?
**A.** 29.9 µM (inactive)

**Q.** What about the GI50 [42] of the same compound?
**A.** 19.2 µM (inactive)

**Q.** What about the GI50 [43] of the same compound?
**A.** 36.9 µM (inactive)

**Q.** What about the GI50 [44] of the same compound?
**A.** 30.6 µM (inactive)

**Q.** And the GI50 [45]?
**A.** 27.6 µM (inactive)

**Q.** What about the GI50 [46] of the same compound?
**A.** 25.1 µM (inactive)

**Q.** And the GI50 [47]?
**A.** 40.2 µM (inactive)

**Q.** What about the GI50 [48] of the same compound?
**A.** > 10 µM (inactive)

**Q.** And the GI50 [49]?
**A.** 58.7 µM (inactive)

**Q.** And the GI50 [50]?
**A.** 67 µM (inactive)

**Q.** And the GI50 [51]?
**A.** 25 µM (inactive)

**Q.** What about the GI50 [52] of the same compound?
**A.** 23.9 µM (inactive)

**Q.** What about the GI50 [53] of the same compound?
**A.** 21.8 µM (inactive)

**Q.** What about the GI50 [54] of the same compound?
**A.** 33 µM (inactive)

**Q.** What does the source list for `COC(=O)c1nc(N)nc(O)c1-c1ccc(Cl)cc1`?
**A.** GI50 [1]: > 100 µM (inactive); GI50 [2]: > 100 µM (inactive); GI50 [3]: > 100 µM (inactive); GI50 [55]: > 100 µM (inactive); GI50 [4]: > 100 µM (inactive); GI50 [5]: > 100 µM (inactive); GI50 [6]: > 100 µM (inactive); GI50 [56]: > 100 µM (inactive); GI50 [7]: > 100 µM (inactive); GI50 [8]: > 100 µM (inactive); GI50 [9]: > 100 µM (inactive); GI50 [57]: > 100 µM (inactive); GI50 [10]: > 100 µM (inactive); GI50 [11]: > 100 µM; GI50 [12]: > 100 µM (inactive); GI50 [58]: > 100 µM (inactive); GI50 [14]: > 100 µM (inactive); GI50 [15]: > 100 µM (inactive); GI50 [16]: > 100 µM (inactive); GI50 [17]: > 100 µM (inactive); GI50 [18]: > 100 µM (inactive); GI50 [19]: > 100 µM (inactive); GI50 [20]: > 100 µM (inactive); GI50 [21]: > 100 µM (inactive); GI50 [22]: > 100 µM (inactive); GI50 [23]: > 100 µM (inactive); GI50 [24]: > 100 µM (inactive); GI50 [25]: > 100 µM (inactive); GI50 [26]: > 100 µM (inactive); GI50 [27]: > 100 µM (inactive); GI50 [28]: > 100 µM (inactive); GI50 [29]: > 100 µM (inactive); GI50 [30]: > 100 µM (inactive); GI50 [31]: > 100 µM (inactive); GI50 [32]: > 100 µM (inactive); GI50 [33]: > 100 µM (inactive); GI50 [34]: > 100 µM (inactive); GI50 [35]: > 100 µM (inactive); GI50 [36]: > 100 µM (inactive); GI50 [37]: > 100 µM (inactive); GI50 [38]: > 100 µM (inactive); GI50 [39]: > 100 µM (inactive); GI50 [40]: > 100 µM (inactive); GI50 [41]: > 100 µM (inactive); GI50 [42]: > 100 µM (inactive); GI50 [43]: > 100 µM (inactive); GI50 [44]: > 100 µM (inactive); GI50 [45]: > 100 µM (inactive); GI50 [46]: > 100 µM (inactive); GI50 [47]: > 100 µM (inactive); GI50 [59]: > 70 µM (inactive); GI50 [48]: > 100 µM (inactive); GI50 [49]: > 100 µM (inactive); GI50 [50]: > 100 µM (inactive); GI50 [51]: > 100 µM (inactive); GI50 [52]: > 100 µM (inactive); GI50 [53]: > 100 µM (inactive); GI50 [54]: > 100 µM (inactive)

**Q.** What does the source list for `CC1=C(c2nc3ccccc3s2)C(=O)OC1(C)C`?
**A.** GI50 [1]: > 100 µM (inactive); GI50 [3]: > 100 µM (inactive); GI50 [55]: > 100 µM (inactive); GI50 [4]: > 100 µM (inactive); GI50 [5]: > 100 µM (inactive); GI50 [6]: > 100 µM (inactive); GI50 [56]: > 100 µM (inactive); GI50 [7]: > 100 µM (inactive); GI50 [8]: > 100 µM (inactive); GI50 [9]: > 100 µM (inactive); GI50 [57]: > 100 µM (inactive); GI50 [10]: > 100 µM (inactive); GI50 [11]: > 100 µM; GI50 [58]: > 100 µM (inactive); GI50 [15]: > 100 µM (inactive); GI50 [17]: > 100 µM (inactive); GI50 [18]: > 100 µM (inactive); GI50 [19]: > 100 µM (inactive); GI50 [20]: > 100 µM (inactive); GI50 [21]: > 100 µM (inactive); GI50 [22]: > 100 µM (inactive); GI50 [23]: > 100 µM (inactive); GI50 [24]: > 100 µM (inactive); GI50 [25]: > 100 µM (inactive); GI50 [26]: > 100 µM (inactive); GI50 [27]: > 100 µM (inactive); GI50 [28]: > 100 µM (inactive); GI50 [29]: > 100 µM (inactive); GI50 [30]: > 100 µM (inactive); GI50 [31]: > 100 µM (inactive); GI50 [32]: > 100 µM (inactive); GI50 [33]: > 100 µM (inactive); GI50 [34]: > 100 µM (inactive); GI50 [36]: > 100 µM (inactive); GI50 [37]: > 100 µM (inactive); GI50 [38]: > 100 µM (inactive); GI50 [39]: > 100 µM (inactive); GI50 [40]: > 100 µM (inactive); GI50 [41]: > 100 µM (inactive); GI50 [42]: > 100 µM (inactive); GI50 [43]: > 100 µM (inactive); GI50 [44]: > 100 µM (inactive); GI50 [45]: > 100 µM (inactive); GI50 [46]: 86.5 µM (inactive); GI50 [47]: > 100 µM (inactive); GI50 [59]: > 100 µM (inactive); GI50 [48]: > 100 µM (inactive); GI50 [50]: > 100 µM (inactive); GI50 [51]: > 100 µM (inactive); GI50 [52]: > 100 µM (inactive); GI50 [53]: > 100 µM (inactive); GI50 [54]: > 100 µM (inactive)
